From patent US9796711B2, “Substituted pyrazolo[3,4-b]pyridin-6-carboxylic acids and method of use” (AbbVie S.àr.l., priority 2015, dated 2017)

Tests used:
[1] = target: T1, ΔF508-CFTR (Homo sapiens, UniProt P13569, DEL508-508); assay: CFTR cell surface levels using HRP-tagged ΔF508-CFTR expressing CFBE cells, intrinsic corrector capacity; format: cell-based; details: HRP-tagged ΔF508-CFTR CFBE41o- cells, compounds alone (intrinsic corrector capacity), 20 hours at 33° C.; for % Activation: positive control 3 μM corrector; for EC50: read-out: EC50
T1 construct: host or cells: CFBE41o-, doxycycline-inducible
T1 sequence (P13569 with tags, fused parts or gaps DEL508-508): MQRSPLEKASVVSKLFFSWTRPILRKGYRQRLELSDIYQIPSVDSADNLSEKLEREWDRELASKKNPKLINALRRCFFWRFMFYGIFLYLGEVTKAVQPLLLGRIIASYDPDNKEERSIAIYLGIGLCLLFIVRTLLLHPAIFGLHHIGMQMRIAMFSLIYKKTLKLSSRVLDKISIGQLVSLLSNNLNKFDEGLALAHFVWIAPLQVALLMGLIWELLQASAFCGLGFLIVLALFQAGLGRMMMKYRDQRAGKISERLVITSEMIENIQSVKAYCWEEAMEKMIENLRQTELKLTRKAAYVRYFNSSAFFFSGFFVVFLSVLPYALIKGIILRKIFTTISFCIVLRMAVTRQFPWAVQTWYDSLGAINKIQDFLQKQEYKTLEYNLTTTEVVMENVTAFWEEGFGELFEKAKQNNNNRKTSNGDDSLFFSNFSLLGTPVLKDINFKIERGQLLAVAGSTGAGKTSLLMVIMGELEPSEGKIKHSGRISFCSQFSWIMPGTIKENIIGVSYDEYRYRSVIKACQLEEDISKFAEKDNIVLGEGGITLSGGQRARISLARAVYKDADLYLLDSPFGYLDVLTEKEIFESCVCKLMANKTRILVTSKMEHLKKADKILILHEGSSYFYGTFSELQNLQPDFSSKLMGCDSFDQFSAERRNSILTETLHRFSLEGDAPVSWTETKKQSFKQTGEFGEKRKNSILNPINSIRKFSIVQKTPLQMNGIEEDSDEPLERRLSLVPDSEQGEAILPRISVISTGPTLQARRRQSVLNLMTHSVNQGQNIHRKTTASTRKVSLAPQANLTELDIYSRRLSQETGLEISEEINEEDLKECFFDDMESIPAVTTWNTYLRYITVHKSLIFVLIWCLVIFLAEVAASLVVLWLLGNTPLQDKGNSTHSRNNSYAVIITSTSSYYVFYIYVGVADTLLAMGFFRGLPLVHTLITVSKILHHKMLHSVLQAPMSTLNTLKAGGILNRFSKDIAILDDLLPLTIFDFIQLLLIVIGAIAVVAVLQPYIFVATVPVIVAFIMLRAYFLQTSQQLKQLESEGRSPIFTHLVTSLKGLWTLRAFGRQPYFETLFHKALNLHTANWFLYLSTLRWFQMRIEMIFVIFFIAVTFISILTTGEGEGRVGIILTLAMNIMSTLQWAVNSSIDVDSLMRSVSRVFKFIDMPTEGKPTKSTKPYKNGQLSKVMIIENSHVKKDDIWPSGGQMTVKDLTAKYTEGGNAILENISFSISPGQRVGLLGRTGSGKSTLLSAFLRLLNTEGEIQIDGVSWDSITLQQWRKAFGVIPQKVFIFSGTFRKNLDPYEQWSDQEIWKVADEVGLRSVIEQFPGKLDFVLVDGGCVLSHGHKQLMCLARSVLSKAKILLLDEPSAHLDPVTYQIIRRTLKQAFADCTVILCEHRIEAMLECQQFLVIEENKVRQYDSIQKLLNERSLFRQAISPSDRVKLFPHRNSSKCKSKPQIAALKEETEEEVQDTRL
From the text: Measuring CFTR Cell Surface Levels Using HRP-Tagged AF508-CFTR Expressing CFBE Cells
The HRP-tagged AF508-CFTR cell assay measures the expression of CFTR-ΔF508 at the plasma membrane. CFTR-ΔF508 has a folding defect leading to absence of protein at the plasma membrane. This assay is used to evaluate the capacity of compounds to increase the expression of CFTR-ΔF508 at the plasma membrane. The CFTR-ΔF508 is tagged with HRP (horse radish peroxidase enzyme) within the ECL4 (Extracellular loop 4) of CFTR (Phuan, P.-W. et al. Synergy-based small-molecule screen using a human lung epithelial cell line yields AF508-CFTR correctors that augment VX-809 maximal efficacy. Mol. Pharmacol. 86, 42-51 (2014)). When HRP-tagged AF508-CFTR is present at the plasma membrane, the HRP enzyme activity can be measured. The amount of CFTR-ΔF508 that can be rescued to the plasma membrane is correlated with the amount of functional enzyme that can be measured.
There are several ways to measure the capacity of compounds to rescue CFTR-ΔF508 to the plasma membrane; either compounds are evaluated on their own and the impact on plasma membrane levels is measured or compounds are evaluated in combination with a co-corrector, i.e. a compound that rescues CFTR-ΔF508 to the plasma membrane but rescue can be enhanced by addition of compounds due to a complementary mode of action.
Activity of Compounds for their Intrinsic Corrector Capacity:
For this purpose doxycycline-inducible AF508-CFTR-HRP expressing CFBE4lo-cells (obtained from Gergely Lukacs, McGill University) were maintained in MEM (Gibco; 31095) supplemented with 10% fetal bovine serum (Hyclone; SV30160.03) under puromycin (3 μg/mL) and G418 selection (0.2 mg/mL). For compound testing, cells were seeded at 4000 cells/well in white 384-well plates (Greiner; 781080) in 50 μL medium containing 0.5 μg/mL doxycycline and incubated for 68 hours at 37° C., 5% CO2. On day four, 10 μL test compounds diluted in PBS were added to the plates at a final DMSO concentration of 0.1%. All compound plates contained negative controls (DMSO) and positive controls (3 μM corrector, 3-[(2R,4R)-4-({[1-(2,2-difluoro-1,3-benzodioxol-5-yl)cyclopropyl]carbonyl}amino)-7-methoxy-3,4-dihydro-2H-chromen-2-yl]benzoic acid). Cell plates were incubated at 33° C., 5% CO2 for 20 hours. On day five, the cells were washed five times with phosphate-buffered saline, and HRP activity was assayed by the addition of 50 μL/well of HRP substrate (SuperSignal™ West Pico Chemiluminescent Substrate, Thermo Scientific; 34080). After incubation for 15 minutes in the dark, chemiluminescence was measured using a plate reader (EnVision®, Perkin Elmer). Raw data were normalized to percentage activity values using the equation: 100×(Sample−Negative control)/(Positive control−Negative Control).

[2] = target: T1, ΔF508-CFTR; assay: CFTR cell surface levels using HRP-tagged ΔF508-CFTR expressing CFBE cells, in the presence of a co-corrector; format: cell-based; details: HRP-tagged ΔF508-CFTR expressing CFBE cells, in the presence of 3 μM co-corrector; for EC50: read-out: EC50
How it was run: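 Cells were seeded with 0.5 μg/mL doxycycline and held 68 h at 37 °C. Test compounds plus 3 μM co-corrector (final 0.1% DMSO) were then added for 20 h at 33 °C. Washed cells received HRP substrate, and luminescence was normalized between DMSO and 3 μM co-corrector controls.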

| Structure (SMILES) | % Activation [1] [%] | EC50 [1] [nM] | % Activation [2] [%] | EC50 [2] [nM] |
| --- | --- | --- | --- | --- |
| COc1ccc(-c2cc(C(=O)O)nc3c2c(C)nn3C2CCCC2)cc1 [compound 3, 1-cyclopentyl-4-(4-methoxyphenyl)-3-methyl-1H-pyrazolo[3,4-b]pyridine-6-carboxylic acid] | 46.83 | 3340 |  |  |
| COc1ccc(-c2cc(C(=O)O)nc3c2c(C)nn3CCC#N)cc1 [compound 4, 1-(2-cyanoethyl)-4-(4-methoxyphenyl)-3-methyl-1H-pyrazolo[3,4-b]pyridine-6-carboxylic acid] | 3.339 | > 10000 |  |  |
| Cc1nn(-c2cc(C(F)(F)F)[nH]n2)c2nc(C(=O)O)cc(-c3ccc(N4CCOCC4)cc3)c12 [compound 7, 3-methyl-4-[4-(morpholin-4-yl)phenyl]-1-[5-(trifluoromethyl)-1H-pyrazol-3-yl]-1H-pyrazolo[3,4-b]pyridine-6-carboxylic acid] | 5.355 | > 10000 |  |  |
| Cc1nn(-c2ccccc2)c2nc(C(=O)O)cc(-c3ccc(N4CCCCC4)cc3)c12 [compound 8, 3-methyl-1-phenyl-4-[4-(piperidin-1-yl)phenyl]-1H-pyrazolo[3,4-b]pyridine-6-carboxylic acid] | 91.055 | 754 |  |  |
| Cc1nn(-c2ccccc2)c2nc(C(=O)O)cc(-c3ccc(N4CCN(C)CC4)cc3)c12 [compound 9, 3-methyl-4-[4-(4-methylpiperazin-1-yl)phenyl]-1-phenyl-1H-pyrazolo[3,4-b]pyridine-6-carboxylic acid] | 31.76 | 3340 |  |  |
| Cc1nn(-c2cc(F)cc(F)c2)c2nc(C(=O)O)cc(-c3ccc(N4CCOCC4)cc3)c12 [compound 10, 1-(3,5-difluorophenyl)-3-methyl-4-[4-(morpholin-4-yl)phenyl]-1H-pyrazolo[3,4-b]pyridine-6-carboxylic acid] | 116.55 | 867 |  |  |
| Cc1nn(-c2cccc(Cl)c2)c2nc(C(=O)O)cc(-c3ccc(N4CCOCC4)cc3)c12 [compound 11, 1-(3-chlorophenyl)-3-methyl-4-[4-(morpholin-4-yl)phenyl]-1H-pyrazolo[3,4-b]pyridine-6-carboxylic acid] | 134.3 | 1380 |  |  |
| Cc1nn(-c2ccccc2)c2nc(C(=O)O)cc(-c3ccc(N4CCS(=O)(=O)CC4)cc3)c12 [compound 14, 4-[4-(1,1-dioxo-1λ^6,4-thiazinan-4-yl)phenyl]-3-methyl-1-phenyl-1H-pyrazolo[3,4-b]pyridine-6-carboxylic acid] | 58.56 | 3340 |  |  |
| CCOC(=O)c1nn(-c2ccccc2)c2nc(C(=O)O)cc(-c3ccc(N4CCOCC4)cc3)c12 [compound 16, 3-(ethoxycarbonyl)-4-[4-(morpholin-4-yl)phenyl]-1-phenyl-1H-pyrazolo[3,4-b]pyridine-6-carboxylic acid] | 92.93 | 3340 |  |  |
| Cc1nn(-c2cccc(Br)c2)c2nc(C(=O)O)cc(-c3ccc(N4CCOCC4)cc3)c12 [compound 18, 1-(3-bromophenyl)-3-methyl-4-[4-(morpholin-4-yl)phenyl]-1H-pyrazolo[3,4-b]pyridine-6-carboxylic acid] | 126.8 | 783 |  |  |
| COc1cccc(-n2nc(C)c3c(-c4ccc(N5CCOCC5)cc4)cc(C(=O)O)nc32)c1 [compound 21, 1-(3-methoxyphenyl)-3-methyl-4-[4-(morpholin-4-yl)phenyl]-1H-pyrazolo[3,4-b]pyridine-6-carboxylic acid] | 103.72 | 1060 |  |  |
| CC(C)c1nn(-c2ccccc2)c2nc(C(=O)O)cc(-c3ccc(N4CCCC4)cc3)c12 [compound 24, 1-phenyl-3-(propan-2-yl)-4-[4-(pyrrolidin-1-yl)phenyl]-1H-pyrazolo[3,4-b]pyridine-6-carboxylic acid] | 134.1 | 1830 |  |  |
| Cc1nn(-c2ccccc2)c2nc(C(=O)O)cc(-c3ccc(N4CCCC4)cc3)c12 [compound 25, 3-methyl-1-phenyl-4-[4-(pyrrolidin-1-yl)phenyl]-1H-pyrazolo[3,4-b]pyridine-6-carboxylic acid] | 93.1 | 1500 |  |  |
| Cc1nn(-c2ccccc2)c2nc(C(=O)O)cc(-c3ccc(C4=CCN(C)CC4)cc3)c12 [compound 27, 3-methyl-4-[4-(1-methyl-1,2,3,6-tetrahydropyridin-4-yl)phenyl]-1-phenyl-1H-pyrazolo[3,4-b]pyridine-6-carboxylic acid] | 41.145 | 6670 |  |  |
| Cc1nn(-c2ccccc2)c2nc(C(=O)O)cc(-c3ccc(N4CCC(F)C4)cc3)c12 (stereo not shown) [compound 28, 4-[4-(3-fluoropyrrolidin-1-yl)phenyl]-3-methyl-1-phenyl-1H-pyrazolo[3,4-b]pyridine-6-carboxylic acid] | 129.5 | 1180 |  |  |
| CC(=O)N1CCN(c2ccc(-c3cc(C(=O)O)nc4c3c(C)nn4-c3ccccc3)cc2)CC1 [compound 29, 4-[4-(4-acetylpiperazin-1-yl)phenyl]-3-methyl-1-phenyl-1H-pyrazolo[3,4-b]pyridine-6-carboxylic acid] | 146.1 | 3110 |  |  |
| Cc1cc(C)cc(-n2nc(C)c3c(-c4ccc(N5CCOCC5)cc4)cc(C(=O)O)nc32)c1 [compound 30, 1-(3,5-dimethylphenyl)-3-methyl-4-[4-(morpholin-4-yl)phenyl]-1H-pyrazolo[3,4-b]pyridine-6-carboxylic acid] | 119.1 | 1210 |  |  |
| Cc1nn(-c2ccc(OC(F)(F)F)cc2)c2nc(C(=O)O)cc(-c3ccc(N4CCOCC4)cc3)c12 [compound 31, 3-methyl-4-[4-(morpholin-4-yl)phenyl]-1-[4-(trifluoromethoxy)phenyl]-1H-pyrazolo[3,4-b]pyridine-6-carboxylic acid] | 96.335 | 522 |  |  |
| COc1cc(N2CCOCC2)ccc1-c1cc(C(=O)O)nc2c1c(C)nn2-c1ccccc1 [compound 33, 4-[2-methoxy-4-(morpholin-4-yl)phenyl]-3-methyl-1-phenyl-1H-pyrazolo[3,4-b]pyridine-6-carboxylic acid] | 90.265 | 1530 |  |  |
| Cc1nn(-c2cccc(OC(F)(F)F)c2)c2nc(C(=O)O)cc(-c3ccc(N4CCOCC4)cc3)c12 [compound 35, 3-methyl-4-[4-(morpholin-4-yl)phenyl]-1-[3-(trifluoromethoxy)phenyl]-1H-pyrazolo[3,4-b]pyridine-6-carboxylic acid] | 110.15 | 737 |  |  |
| C[C@H]1CN(c2cc(C(=O)O)nc3c2c(C2CCC2)nn3C2CCCCC2)CCN1Cc1ccccc1 [compound 881, 4-[(3S)-4-benzyl-3-methylpiperazin-1-yl]-3-cyclobutyl-1-cyclohexyl-1H-pyrazolo[3,4-b]pyridine-6-carboxylic acid] |  |  | 242.75 | 700 |
| C[C@@H]1CN(c2cc(C(=O)O)nc3c2c(C2CCC2)nn3C2CCCCC2)CCN1Cc1ccccc1 [compound 882, 4-[(3R)-4-benzyl-3-methylpiperazin-1-yl]-3-cyclobutyl-1-cyclohexyl-1H-pyrazolo[3,4-b]pyridine-6-carboxylic acid] |  |  | 363.85 | 372 |
| O=C(O)c1cc(N2CCC(CN3CCCC3)CC2)c2c(C3CCC3)nn(-c3ccc(F)cc3)c2n1 [compound 888, 3-cyclobutyl-1-(4-fluorophenyl)-4-{4-[(pyrrolidin-1-yl)methyl]piperidin-1-yl}-1H-pyrazolo[3,4-b]pyridine-6-carboxylic acid] |  |  | 430 | 333 |
